Measurements as given in PMC8861431, “Tissue Pharmacokinetic Properties and Bystander Potential of Hypoxia-Activated Prodrug CP-506 by Agent-Based Modelling” (Frontiers in Pharmacology, 2022).
Where two headings read alike, the source gives them in different places.

How the values were obtained:
[1] = system: POR-overexpressing HCT-116 cells (POR-R) monolayer; settings: cited from earlier work
[2] = system: POR-R cell line (POR-overexpressing HCT-116); experiment: Anti-proliferative IC50 assay (SRB); assay type: cell-based, human; settings: for IC50: Homo sapiens, HCT-116, 4 h exposure
Text: (§1) The HCT-116 cell line was purchased from the American Type Culture Collection (Manassas, VA). A POR-overexpressing clone (POR-R) was generated by transfecting the parental cell line with a pBRP expression vector encoding an N-terminal truncated soluble version of the human POR gene ([Foehrenbacher et al., 2013a]; [Guise et al., 2020]). Ectopic expression is driven by the human cytomegalovirus (CMV) major immediate-early promoter. Downstream of POR is a human elongation factor-1 alpha (EF-1 alpha) promoter, which drives expression of mRuby and the puromycin resistance gene pac (puromycin N-acetyltransferase). A POR-null clone (PORG-ko) was generated as previously described ([Su et al., 2013]). POR-null clones were then transfected with a pEGFP-N1 plasmid encoding enhanced green fluorescent protein (EGFP) and geneticin resistance to permit identification upon co-culture ([Hong et al., 2018b]). Cell lines were maintained by weekly subculture in T-flasks containing alpha minimal essential medium (αMEM) with 5% foetal bovine serum (FBS) for a maximum of 24 passages or 90 days (whichever came first). The culture medium was further supplemented with 1 mg/ml geneticin or 2 µM puromycin for the routine maintenance of the POR-null and POR-overexpressing clones respectively. All cultures were re-established from STR-authenticated, mycoplasma negative frozen stocks.
(§2) Cells (700–1,000 per well) were seeded with 100 µl culture medium into 96-well plates and left to attach for 2 h in a humidified 37°C incubator. Compounds were prepared in culture medium and serially diluted (1:3) in the well volume. Plates were returned to a humidified 37°C incubator for the duration of the drug exposure (4 h). Aerobic experiments were performed under standard tissue culture conditions (21% O2), and the anoxic experiments were performed in parallel in a 5% H2/Pd catalyst anaerobic chamber (Shellab Bactron, Sheldon manufacturing Inc., Cornelius, OR) using pre-equilibrated media and plasticware. All anoxia experiments were conducted using a catalyst-scrubbed anaerobic chamber, unless otherwise specified, with gas oxygen measurements of <1 ppm O2. Cells were then washed three times and left to grow for 96 h before cell density determination using a sulforhodamine B (SRB) assay ([Vichai and Kirtikara, 2006]). To this end, the cells were fixed by layering 50 µl of trichloroacetic acid (40% w/v in MilliQ water) on top of the culture media (150 µl) in each well for 1 h at 4°C. Plates were rinsed under running tap water and stained with 50 µl of SRB (0.4% w/v in MilliQ water containing 1% v/v acetic acid) for 30 min at room temperature. Plates were rapidly destained by rinsing three times in tap water containing 1% (v/v) acetic acid. The stain was solubilized by adding 100 µl of 10 mM unbuffered Tris base to each well with gentle rocking for 1 h. Plates were read on a Biotek ELx808 Absorbance Microplate Reader at 490 nm using KC4 software. The IC50 value (concentration required to reduce staining to 50% of the untreated control on the same plate) for each compound was determined by interpolation using a 4-parameter logistic regression model.

[3] = system: PORko-G cell line (POR-knockout HCT-116); experiment: Anti-proliferative IC50 assay (SRB); assay type: cell-based, human; settings: for IC50: Homo sapiens, HCT-116, 4 h exposure
Text: as §1, §2

HCT-116 WT cell line = experiment: Monolayer clonogenic assay; assay type: cell-based; settings: Homo sapiens; HCT-116 WT monolayer; 4 h exposure, <1 ppm O2; read-out: Clonogenic IC50 under anoxia
Description: Cells (4.8 x 10^5 cells) were seeded with 2 ml culture medium into 6-well plates and left to attach for 2 h in a humidified 37°C incubator. Compounds were then prepared in culture medium and added in a 500 µl volume to each well. Plates were returned to a humidified 37°C incubator for the duration of the drug exposure (4 h). Aerobic and anoxic experiments were performed as described above. Plates were then removed from the anaerobic chamber and processed alongside the aerobic cultures. Cells were detached from monolayer by trypsinisation and plated at serial dilutions in 6-well plates. Cells were left to grow in a standard 37°C incubator for 10 days until the controls formed discrete colonies comprised of at least 50 cells. Colonies were visualized by staining with methylene blue (2 g/L in 50% aqueous ethanol) for 30 min. The number of colonies with at least 50 cells was manually counted to determine the plating efficiency. The surviving fraction was determined as the ratio of plating efficiency of treated cells to that of the controls.

[4] = system: spheroid co-cultures of POR-R activator and PORko-G target cells; experiment: Spheroid growth delay assay; assay type: cell-based; settings: Homo sapiens, 4 h, 4 h exposure, anoxic, read-out: IC50 for inhibition of spheroid growth
Description: Spheroid cultures were established by seeding 3 x 10^3 cells with 100 µl medium into ultra-low attachment, round bottom 96-well plates (Corning Inc, Corning, NY). Plates were briefly centrifuged (200 g, 5 min) to facilitate cell aggregation and grown in a standard incubator (37°C, 21% O2, 5% CO2) for 4 days before experiments. The culture medium was then aspirated, and the established spheroids taken into a H2/Pd-catalyst anaerobic chamber. Spheroids were washed three times with anoxia pre-equilibrated medium and left to settle for 1 h in a humidified 37°C incubator. Spheroids were removed from the anaerobic chamber after a 4 h drug exposure and washed three times with fresh culture medium. The growth of representative spheroids was monitored for 10 days using a published method of image analysis for volume determination ([Mao et al., 2018]). The remainder were enzymatically dissociated and plated at serial dilutions in 6-well plates containing 2 µM puromycin or 1 mg/ml geneticin for positive selection of POR-R and PORko-G cells, respectively. Colonies were visualized after 10 days of drug-free proliferation by staining with methylene blue (2 g/L in 50% aqueous ethanol) for 30 min. The number of colonies with at least 50 cells was manually counted to determine the plating efficiency. The surviving fraction was determined as the ratio of the plating efficiency of treated cells to that of the controls.

[5] = system: POR-overexpressing HCT-116 cells (POR-R) monolayer; experiment: Cellular uptake studies / cellular PK model; assay type: in vitro ADME, human; settings: aerobic 21% O2, Co range 0.3–30 µM
[6] = ref Van Der Wiel et al., 2021; cited from earlier work
[7] = Table 1 footnote d: assumed equivalent to measured metabolites or derived from published estimates for PR-104A metabolites, ref Foehrenbacher et al., 2013a, Hong et al., 2018b
[8] = Table S3, fixed to fitted values for downstream metabolites of PR-104 ('metabolite 2'), ref (2,3)

SMILES | k in: rate constant for transfer from the extracellular to intracellular volume [1, 7] | k out: rate constant for transfer from the intracellular to extracellular volume [1, 7] | T1/2: time required to reduce the concentration to half its initial value [1, 8] | kin: rate of transfer from the extracellular to the intracellular compartment [1, 8] | kout: rate of transfer from the intracellular to the extracellular compartment [1, 8] | IC50 ([2]; anoxic <1 ppm O2, 96 h drug-free proliferation, read-out: Anoxic IC50 (anti-proliferative)) | IC50 ([2]; normoxic 21% O2, 96 h drug-free proliferation, read-out: Aerobic IC50 (anti-proliferative)) | Fold lower IC50 under anoxic vs aerobic conditions ([2]; anti-proliferative assay) | IC50 ([3]; PORko-G, anoxic <1 ppm O2, 96 h drug-free proliferation, read-out: Anoxic IC50 (anti-proliferative)) | IC50 ([3]; PORko-G, normoxic 21% O2, 96 h drug-free proliferation, read-out: Aerobic IC50 (anti-proliferative)) | Fold lower IC50 under anoxic vs aerobic conditions ([3]; PORko-G, anti-proliferative assay) | Differential in anoxic sensitivity between PORko-G and POR-R cell lines ([3]; anti-proliferative assay, anoxia) | IC50 (HCT-116 WT cell line) | IC50 ([4]; 0% activator cells) | IC50 ([4]; 10% activator cells) | IC50 ([4]; 50% activator cells) | IC50 ([4]; 100% activator cells) | Steady-state Ci/Ce ratio (cell uptake) [5] | O2 concentration above which prodrug activation and cytotoxicity are completely inhibited [6]
CCN1CCN(C(=O)c2cc(N(CCCl)CCCl)c(S(C)(=O)=O)cc2N)CC1 [CP-506M-Cl2, (2-Amino-5-(bis(2-chloroethyl)amino)-4-(methylsulfonyl)phenyl)(4-ethylpiperazin-1-yl)methanone] | 0.9 ^d min^−1 | 0.3 ^d min^−1 | 6.6 min | 0.9 min⁻¹ | 0.3 min⁻¹ | – | – | – | – | – | – | – | – | – | – | – | – | – | –
CCN1CCN(C(=O)c2cc(N(CCBr)CCOS(C)(=O)=O)c(S(C)(=O)=O)cc2[N+](=O)[O-])CC1 [CP-506, 2-[(2-bromoethyl)-5-[(4-ethyl-1-piperazinyl)carbonyl]-2-(methylsulfonyl)-4-nitroanilino]ethyl methanesulfonate] | – | – | – | – | – | 2.5 ± 0.3 µM | 120 ± 13 µM | 48.6 fold | 33.1 ± 5.6 µM | 240 ± 26 µM | 7.3 fold | 13 fold | 7.4 ± 0.5 µM | > 40 µM | 13.6 µM | 5.6 µM | 2.4 µM | 50 fold | above 1 µM O2
